Patent US4318904A, “Peptide affinity labels for thrombin and other trypsin-like proteases” (Research Corporation, priority 1980, dated 1982)
pKi: −log10 of the molar value. Read-outs that look alike come from different tables or passages of the source. Where no end group is shown, it is not given here. The star is where a group is joined. CH2Cl = ClC*

How the values were obtained:
[1] = target: T1, thrombin (Homo sapiens, UniProt P00734); test: Inactivation of human thrombin, fibrinogen clotting assay; assay type: biochemical; conditions: 4.5×10^-7 M thrombin + 2.25×10^-7 M label; theoretical value 50%
[2] = target: T1, thrombin; test: Inactivation of human thrombin, residual esterase activity; assay type: biochemical; conditions: 4.5×10^-7 M thrombin + 2.25×10^-7 M label; theoretical value 50%
[3] = target: T1, thrombin; set-up: Thrombin itself is generated from a pro-enzyme, prothrombin, by the enzymatic action of another proteolytic enzyme, factor Xa; conditions: Bajusz et al, page 603; reversible inhibitor; cited from earlier work
[4] = target: T1, thrombin; set-up: Thrombin itself is generated from a pro-enzyme, prothrombin, by the enzymatic action of another proteolytic enzyme, factor Xa; conditions: cited from earlier work; for t1/2, half time for the pseudo-first-order inactivation of thrombin / kapp /[I], apparent first order rate constant for inactivation of thrombin / concentration of affinity label: pH 7.0, 25° C; for pKi / k2 / k2 /Ki: Table IV, ref (a) Kettner and Shaw

Compound	kapp /[I], apparent first order rate constant for inactivation of thrombin / concentration of affinity label [4]	pKi [4]	k2 [4]	k2 /Ki [4]	further results
N=C(N)NCCC[C@H](NC(=O)[C@@H]1CCCN1C(=O)[C@H](N)Cc1ccccc1)C(=O)CCl [D-Phe-Pro-ArgCH2 Cl, D-Phe-Pro-Arg-CH2 Cl.2HCl]	–	–	–	–	inactivation of human thrombin by clotting assay [1]: 45%; inactivation of human thrombin by esterase assay [2]: 47%
D-Phe-Pro-Arg-H	–	–	–	–	pKi [3]: 7.12
Glu-Gly-ArgCH2 Cl	2.20 (min^-1 M^-1) × 10^-4	–	–	–	t1/2, half time for the pseudo-first-order inactivation of thrombin ([4]; inhibitor 1.0 × 10^-6 M): 31 min
Gly-Val-ArgCH2 Cl	1.90 (min^-1 M^-1) × 10^-4	4.89	0.30 min⁻¹	383 M⁻¹ s⁻¹	t1/2, half time for the pseudo-first-order inactivation of thrombin ([4]; inhibitor 2.0 × 10^-6 M): 18 min
Ile-Pro-ArgCH2 Cl	42.00 (min^-1 M^-1) × 10^-4	–	–	–	t1/2, half time for the pseudo-first-order inactivation of thrombin ([4]; inhibitor 7.5 × 10^-8 M): 22 min
Phe-Ala-ArgCH2 Cl	–	5.54	0.26 min⁻¹	1500 M⁻¹ s⁻¹	–
Phe-Ala-LysCH2 Cl	–	4.43	0.34 min⁻¹	150 M⁻¹ s⁻¹	–
Pro-Gly-ArgCH2 Cl	1.20 (min^-1 M^-1) × 10^-4	–	–	–	t1/2, half time for the pseudo-first-order inactivation of thrombin ([4]; inhibitor 1.0 × 10^-6 M): 57 min
Pro-Phe-ArgCH2 Cl	0.04 (min^-1 M^-1) × 10^-4	–	–	–	t1/2, half time for the pseudo-first-order inactivation of thrombin ([4]; inhibitor 5.0 × 10^-5 M): 35 min
Val-Ile-Pro-ArgCH2 Cl (VIPR-CH2Cl)	73.00 (min^-1 M^-1) × 10^-4	–	–	–	t1/2, half time for the pseudo-first-order inactivation of thrombin ([4]; inhibitor 7.5 × 10^-8 M): 13 min
Val-Pro-ArgCH2 Cl	54.00 (min^-1 M^-1) × 10^-4	6.17	0.31 min⁻¹	6670 M⁻¹ s⁻¹	t1/2, half time for the pseudo-first-order inactivation of thrombin ([4]; inhibitor 7.5 × 10^-8 M): 17 min
Val-Val-ArgCH2 Cl	2.10 (min^-1 M^-1) × 10^-4	–	–	–	t1/2, half time for the pseudo-first-order inactivation of thrombin ([4]; inhibitor 1.0 × 10^-6 M): 33 min
